Here are results for 8 molecules from patent publication US7981918B2, “Cyclohexylpyrazole-lactam derivatives as inhibitors of 11-beta-hydroxysteroid dehydrogenase 1” (Eli Lilly and Company, priority 2006, dated 2011).

One assay relates to cortisone conversion. Nature of the assay: Acute In Vivo Cortisone Conversion Assay. The arrangement: species or system mice (male C57BL/6). To be noted: Mus musculus; mice, oral dose of 10 mg/kg, cortisone challenge after 16 hours, serum cortisol. Here is the method: Acute In Vivo Cortisone Conversion Assay
In general, compounds are dosed orally into mice, the mice are challenged with a subcutaneous injection of cortisone at a set timepoint after compound injection, and the blood of each animal is collected some time later. Separated serum is then isolated and analyzed for levels of cortisone and cortisol by LC-MS/MS, followed by calculation of mean cortisol and percent inhibition of each dosing group. Specifically, male C57BL/6 mice are obtained from Harlan Sprague Dawley at average weight of 25 grams. Exact weights are taken upon arrival and the mice randomized into groups of similar weights. Compounds are prepared in 1% w-w HEC, 0.25% w-w polysorbate 80, 0.05% w-w Dow Corning antifoam #1510-US at various doses based on assumed average weight of 25 grams. Compounds are dosed orally, 200 μl per animal, followed by a subcutaneous dose, 200 μl per animal, of 30 mg/kg cortisone at 1 to 24 hours post compound dose. At 10 minutes post cortisone challenge, each animal is euthanized for 1 minute in a CO2 chamber, followed by blood collection via cardiac puncture into serum separator tubes. Once fully clotted, tubes are spun at 2500×g, 4° C. for 15 minutes, the serum transferred to wells of 96-well plates (Corning Inc, Costar #4410, cluster tubes, 1.2 ml, polypropylene), and the plates are frozen at −20° C. until analysis by LC-MS/MS. For analysis, serum samples are thawed and the proteins are precipitated by the addition of acetonitrile containing d4-cortisol internal standard. Samples are vortex mixed and centrifuged. The supernatant is removed and dried under a stream of warm nitrogen. Extracts are reconstituted in methanol/water (1:1) and injected onto the LC-MS/MS system. The levels of cortisone and cortisol are assayed by selective reaction monitoring mode following positive ACPI ionization on a triple quadrupole mass spectrophotometer.

The target in another assay is T1, 11β-HSD1 (Homo sapiens, UniProt P28845).
T1 construct: containing 12 ng/mL hTNFα to induce expression of 11β-HSD1; endogenous in cells; host or cells: primary human aortic smooth muscle cells (AoSMC), induced with hTNFα
T1 sequence (P28845 whole entry): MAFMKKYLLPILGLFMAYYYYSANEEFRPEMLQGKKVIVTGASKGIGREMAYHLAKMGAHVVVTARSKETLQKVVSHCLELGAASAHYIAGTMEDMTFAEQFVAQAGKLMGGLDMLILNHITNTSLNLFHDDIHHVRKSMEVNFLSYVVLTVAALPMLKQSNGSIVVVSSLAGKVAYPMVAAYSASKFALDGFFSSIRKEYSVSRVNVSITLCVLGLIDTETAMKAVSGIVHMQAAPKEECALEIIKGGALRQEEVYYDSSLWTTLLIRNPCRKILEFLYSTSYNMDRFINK
Description: Human Aortic Smooth Muscle Cell Assay (cortisone to cortisol). To be noted: primary human aortic smooth muscle cells (AoSMC), hTNFα-induced 11β-HSD1, cortisol by immunoassay. It is filed as cell-based. Here is the method: Human Aortic Smooth Muscle Cell Assay
Primary human aortic smooth muscle cells (AoSMC) are cultured in 5% FBS growth medium to a passage number of 6, then pelleted by centrifugation and resuspended at a density of 9×10^4 cells/mL in 0.5% FBS assay medium containing 12 ng/mL hTNFα to induce expression of 11β-HSD1. Cells are seeded into 96-well tissue culture assay plates at 100 μL/well (9×10^3 cells/well) and incubated for 48 hours at 37° C., 5% CO2. Following induction, cells are incubated for 4 hours at 37° C., 5% CO2 in assay medium containing test compounds then treated with 10 μL/well of 10 μM cortisone solubilized in assay medium, and incubated for 16 hours at 37° C., 5% CO2. Medium from each well is transferred to a plate for subsequent analysis of cortisol using a competitive fluorescence resonance time resolved immunoassay. In solution, an allophycocyanin (APC)-cortisol conjugate and free cortisol analyte compete for binding to a mouse anti-cortisol antibody/Europium (Eu)-anti mouse IgG complex. Higher levels of free cortisol result in diminishing energy transfer from the Europium-IgG to the APC-cortisol complex resulting in less APC fluorescence. Fluorescent intensities for Europium and APC are measured using a LJL Analyst AD. Europium and APC excitation is measured using 360 nm excitation and 615 nm and 650 nm emission filters respectively. Time resolved parameters for Europuium were 1000 μs integration time with a 200 μs delay. APC parameters are set at 150 μs integration time with a 50 μs delay. Fluorescent intensities measured for APC are modified by dividing by the Eu fluorescence (APC/Eu). This ratio is then used to determine the unknown cortisol concentration by interpolation using a cortisol standard curve fitted with a 4-parameter logistic equation. These concentrations are then used to determine compound activity by plotting concentration versus % inhibition, fitting with a 4-parameter curve and reporting the IC50.

In assay [1] the target is recombinant human 11β-HSD type 1 enzyme (Homo sapiens, UniProt P28845). Description: 11β-HSD Type 1 Enzyme Assay (NADPH fluorescence). It is filed as biochemical. To be noted: three hour incubation at room temperature, read-out: Human 11-βHSD1 IC50. How it is done:
11β-HSD Type 1 Enzyme Assay
Human 11β-HSD type 1 activity is measured by assaying NADPH production by fluorescence assay. Solid compounds are dissolved in DMSO to a concentration of 10 mM. Twenty microliters of each are then transferred to a column of a 96-well polypropylene Nunc plate where they are further diluted 50-fold followed by subsequent two-fold titration, ten times across the plate with additional DMSO using a Tecan Genesis 200 automated system. Plates are then transferred to a Tecan Freedom 200 system with an attached Tecan Temo 96-well head and an Ultra 384 plate reader. Reagents are supplied in 96-well polypropylene Nunc plates and are dispensed individually into black 96-well Molecular Devices High Efficiency assay plates (40 μL/well capacity) in the following fashion: 9 μL/well of substrate (2.22 mM NADP, 55.5 μM Cortisol, 10 mM Tris, 0.25% Prionex, 0.1% Triton X100), 3 μL/well of water to compound wells or 3 μL to control and standard wells, 6 μL/well recombinant human 11β-HSD type 1 enzyme, 2 μL/well of compound dilutions. For ultimate calculation of percent inhibition, a series of wells are added that represent assay minimum and maximum: one set containing substrate with 667 μM carbenoxolone (background), and another set containing substrate and enzyme without compound (maximum signal). Final DMSO concentration is 0.5% for all compounds, controls and standards. Plates are then placed on a shaker by the robotic arm of the Tecan for 15 seconds before being covered and stacked for a three hour incubation period at room temperature. Upon completion of this incubation, the Tecan robotic arm removes each plate individually from the stacker and places them in position for addition of 5 μL/well of a 250 μM carbenoxolone solution to stop the enzymatic reaction. Plates are then shaken once more for 15 seconds then placed into an Ultra 384 microplate reader (355EX/460EM) for detection of NADPH fluorescence.

A further assay addresses T2, 11-βHSD2 enzyme (Homo sapiens, UniProt P80365).
T2 sequence (P80365 1-405): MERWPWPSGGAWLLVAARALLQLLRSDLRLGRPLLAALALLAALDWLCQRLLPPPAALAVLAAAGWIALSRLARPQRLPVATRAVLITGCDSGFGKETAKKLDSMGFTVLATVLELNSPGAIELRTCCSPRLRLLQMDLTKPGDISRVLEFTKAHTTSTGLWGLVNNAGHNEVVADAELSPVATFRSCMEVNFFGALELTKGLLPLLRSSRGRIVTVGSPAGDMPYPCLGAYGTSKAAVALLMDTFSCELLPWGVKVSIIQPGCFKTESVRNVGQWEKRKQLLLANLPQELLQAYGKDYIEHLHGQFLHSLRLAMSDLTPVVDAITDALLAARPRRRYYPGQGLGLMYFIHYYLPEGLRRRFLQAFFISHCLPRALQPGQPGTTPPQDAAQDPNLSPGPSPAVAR
Description: Selectivity assay using the 11-βHSD2 enzyme. It is filed as biochemical. To be noted: selectivity 11-βHSD1 over 11-βHSD2. The text has this: Compounds of the invention can also tested for selectivity against 11-βHSD2 in an assay similar to that described for 11-βHSD1, but using the 11-βHSD2 enzyme. The assay using the 11-βHSD2 enzyme can be carried out by the methods described herein and supplemented by methods known in the art.

Sequence of recombinant human 11β-HSD type 1 enzyme (P28845 whole entry): as the sequence (P28845 whole entry) above

For the molecule `O=C(c1ccc(-c2cc(Cl)c(C[C@@H]3CCN(C4CCc5n[nH]cc5C4)C3=O)c(Cl)c2)cc1)N1CCOCC1` (some centres unmarked) [Example 41], in the assay on cortisone conversion, the inhibition (usually how much of the control response was suppressed) at 10 mg/kg was determined as 84%.

On to `O=C1C(Cc2c(Cl)cc(-c3ccccc3)cc2Cl)CCN1C1CCc2n[nH]cc2C1` (centres unmarked) [Example 20], for which half-maximal inhibition against 11β-HSD1 (IC50) required 2 nM.

As for `O=C1[C@H](Cc2c(Cl)cc(OCc3ccccc3)cc2Cl)CCN1[C@H]1CCc2n[nH]cc2C1` [Example 35, (3R,5S)-3-(4-Benzyloxy-2,6-dichloro-benzyl)-1-(4,5,6,7-tetrahydro-2H-indazol-5-yl)-pyrrolidin-2-one], the IC50 (usually the point on the concentration scale where inhibition reaches its midpoint) in assay [1] was 243 nM.

At 11β-HSD1, `Cn1cc(-c2ccc(CC3CCN(C4CCc5n[nH]cc5C4)C3=O)c(Cl)c2)cn1` (centres unmarked) [Example 11, 3-[2-Chloro-4-(1-methyl-1H-pyrazol-4-yl)-benzyl]-1-(4,5,6,7-tetrahydro-2H-indazol-5-yl)-pyrrolidin-2-one] showed an IC50 of 24 nM.

With `O=C1[C@H](Cc2c(Cl)cc(-c3ccc(F)cc3)cc2Cl)CCN1[C@H]1CCc2n[nH]cc2C1` [Example 36, (3R-5S)-(−)-3-(3,5-Dichloro-4′-fluoro-biphenyl-4-ylmethyl)-1-(4,5,6,7-tetrahydro-2H-indazol-5-yl)-pyrrolidin-2-one], the IC50 was 0.4 nM at 11β-HSD1 and 276 nM in assay [1]. The “fold greater inhibition of 11-βHSD1 enzyme as compared to the inhibition of 11-βHSD2” value on 11-βHSD2 enzyme was determined as 535 fold. For the same molecule, the inhibition at 10 mg/kg in the assay on cortisone conversion is 95%.

`COc1cc(Cl)c(CC2CCN(C3CCc4n[nH]cc4C3)C2=O)c(Cl)c1` (single isomer, unassigned) [Example 7, 3-(2,6-Dichloro-4-methoxy-benzyl)-1-(4,5,6,7-tetrahydro-2H-indazol-5-yl)-pyrrolidin-2-one]: in assay [1], the IC50 is 37 nM.

As to `COc1cc(Cl)c(CC2CCN(C3CCc4n[nH]cc4C3)C2=O)c(Cl)c1` (racemic) [Example 1, 3-(2,6-Dichloro-4-methoxy-benzyl)-1-(4,5,6,7-tetrahydro-2H-indazol-5-yl)-pyrrolidin-2-one], in assay [1], the IC50 turned out to be 100 nM.

With `O=C1[C@H](Cc2c(Cl)cc(-c3ccc(F)nc3)cc2Cl)CCN1C1CCc2n[nH]cc2C1` (some centres unmarked) [Example 44], testing at 10 mg/kg with cortisone conversion gave an inhibition of 92%.
